Experimental data: patent US20060235076A1, “Medicinal composition for treating infection with drug-resistant staphylococcus aureus” (priority 2003, published 2006)
Like-named read-outs stand apart in the source and are kept apart here.

Key:
MRSA and MSSA = test: Antibacterial activity of gallic acid, various gallates and multivalent phenol derivatives alone (agar plate dilution method, MIC); assay type: cell-based, Staphylococcus aureus; conditions: Staphylococcus aureus; for MIC: read-out: MIC alone
Protocol: According to the agar plate dilution method defined by Japan Society of Chemotherapy, MIC (Minimum inhibitory concentration) was determined. CAMHA was prepared by adding 50 mg/l of Ca-ion, 25 mg/l of Mg-ion, and 2% of NaCl to Mueller-Hinton II Agar (MHA), and it was used as a medium for use in the measurement of sensitivity. The bacterial liquid was incubated at 37° C. overnight and diluted to 10^6 CFU/ml with saline.
MIC for gallic acid, various gallates and multivalent phenol derivatives alone with MRSA and MSSA were determined as described in experiment 2.

[1] = test system: MRSA COL and MRSA Strain No. 5; test: Potentiating effect of various gallates for antibacterial activity of oxacillin (MIC by broth microdilution method and FIC); assay type: cell-based, Staphylococcus aureus; conditions: combination with oxacillin
Protocol: According to the broth microdilution method defined by Japan Society of Chemotherapy, MIC was determined. CAMHA was prepared by adding 50 mg/l of Ca-ion, 25 mg/l of Mg-ion, and 2% of NaCl to MHB (Mueller-Hinton Broth), and it was used as a medium for use in the measurement of sensitivity. In 96-well microplates 100 μl of the medium for use in the measurement of sensitivity containing drugs was dispensed. The bacterial liquid was incubated at 37° C. overnight, diluted with saline and added to the plate so that the final concentration of the bacteria was 5×10^5 CFU/well. […] FIC (fractional inhibitory concentration) was calculated from the result and the potency of the effect of the combination use was evaluated.

CCCCCCOC(=O)c1cc(O)c(O)c(O)c1 [Hexyl gallate, n-hexyl gallate]
62.5 µg/mL: MIC50 (MRSA and MSSA) | MIC (MRSA and MSSA; MRSA #1) | MIC (MRSA and MSSA; MRSA #12) | MIC (MRSA and MSSA; MRSA #16) | MIC (MRSA and MSSA; MRSA #17) | MIC (MRSA and MSSA; MRSA #18) | MIC (MRSA and MSSA; MRSA #20) | MIC (MRSA and MSSA; MRSA #21) | MIC (MRSA and MSSA; MRSA #22) | MIC (MRSA and MSSA; MRSA #24) | MIC (MRSA and MSSA; MSSA #1003) | MIC (MRSA and MSSA; MSSA #1010) | MIC (MRSA and MSSA; MSSA #1020) | MIC (MRSA and MSSA; MSSA #1023) | MIC (MRSA and MSSA; MSSA #1029) | MIC (MRSA and MSSA; MSSA #1032)
0.502: FIC value ([1]; MRSA Strain No. 5)
0.5: FIC value ([1]; MRSA COL)
31.3 µg/mL: MIC (MRSA and MSSA; ATCC 6538 / MRSA / MSSA, ATCC6538) | MIC (MRSA and MSSA; COL) | MIC (MRSA and MSSA; MRSA #2) | MIC (MRSA and MSSA; MRSA #3) | MIC (MRSA and MSSA; MRSA #4) | MIC (MRSA and MSSA; MRSA #5) | MIC (MRSA and MSSA; MRSA #6) | MIC (MRSA and MSSA; MRSA #7) | MIC (MRSA and MSSA; MRSA #8) | MIC (MRSA and MSSA; MRSA #9) | MIC (MRSA and MSSA; MRSA #10)

CCCCCCCOC(=O)c1cc(O)c(O)c(O)c1 [Heptyl gallate, n-heptyl gallate]
31.3 µg/mL: MIC50 (MRSA and MSSA) | MIC (MRSA and MSSA; ATCC 6538 / MRSA / MSSA) | MIC (MRSA and MSSA; COL) | MIC (MRSA and MSSA; MRSA #1) | MIC (MRSA and MSSA; MRSA #2) | MIC (MRSA and MSSA; MRSA #3) | MIC (MRSA and MSSA; MRSA #4) | MIC (MRSA and MSSA; MRSA #5) | MIC (MRSA and MSSA; MRSA #6) | MIC (MRSA and MSSA; MRSA #7) | MIC (MRSA and MSSA; MRSA #8) | MIC (MRSA and MSSA; MRSA #9) | MIC (MRSA and MSSA; MRSA #10) | MIC (MRSA and MSSA; MRSA #12) | MIC (MRSA and MSSA; MRSA #16) | MIC (MRSA and MSSA; MRSA #17) | MIC (MRSA and MSSA; MRSA #18) | MIC (MRSA and MSSA; MRSA #20) | MIC (MRSA and MSSA; MRSA #21) | MIC (MRSA and MSSA; MRSA #22) | MIC (MRSA and MSSA; MRSA #24) | MIC (MRSA and MSSA; MSSA #1003) | MIC (MRSA and MSSA; MSSA #1010) | MIC (MRSA and MSSA; MSSA #1020) | MIC (MRSA and MSSA; MSSA #1023) | MIC (MRSA and MSSA; MSSA #1029) | MIC (MRSA and MSSA; MSSA #1032)
0.75: FIC value ([1]; MRSA Strain No. 5)
0.563: FIC value ([1]; MRSA COL)
